Measurements as given in patent US20060172004A1, “Oral compositions for the stimulation of gastric acid secretion comprising pentagastrin” (priority 2003, published 2006).
Where two headings read alike, the source gives them in different places.

Legend:
[1] = for radioactivity in systemic circulation: oral dose 50×10^6 CPM; for Radioactivity in systemic circulation % of Total Radioactivity/Dose: 50 μg/kg
Experimental: The bioavailability of PG in rats following oral administration of ^3H-labeled PG was studied. Male Wister Hanover rats were anaesthetized and catheters were positioned in the jugular vein for blood sampling. Rats were treated orally with ^3H-PG at a dose of 50 μg/kg (50×10^6 CPM per dose) and blood samples were drawn at 5, 15 and 30 minutes. The radioactivity in blood samples at each time point was determined by a β-counter.

gastrin receptor (CCKB) = molecular target: T1, gastrin receptor (CCKB) (Rattus norvegicus, UniProt P30553); assay: Effect of CCKB antagonist on PG-mediated gastric acid secretion in pylorus-ligated rats; type: in vivo
T1 construct: from tissue; host or cells: stomach of live anesthetized pylorus-ligated rats (in vivo)
T1 sequence (P30553 1-452): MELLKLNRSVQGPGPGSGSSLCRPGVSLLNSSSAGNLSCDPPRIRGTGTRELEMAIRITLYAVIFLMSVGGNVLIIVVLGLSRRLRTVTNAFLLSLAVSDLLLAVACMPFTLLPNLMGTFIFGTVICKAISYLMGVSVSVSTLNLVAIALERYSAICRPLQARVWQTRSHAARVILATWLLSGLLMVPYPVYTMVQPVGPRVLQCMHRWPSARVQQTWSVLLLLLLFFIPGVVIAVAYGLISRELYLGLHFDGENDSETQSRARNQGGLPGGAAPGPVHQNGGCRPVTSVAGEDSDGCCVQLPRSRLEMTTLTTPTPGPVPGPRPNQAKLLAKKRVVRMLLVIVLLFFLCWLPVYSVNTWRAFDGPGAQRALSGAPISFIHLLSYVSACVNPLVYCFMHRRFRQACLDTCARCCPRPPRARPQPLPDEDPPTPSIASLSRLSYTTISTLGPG
Experimental: As PG is a gastrin hormone homologue, its local effect is thought to be mediated via gastrin pathway, i.e. an activation of gastrin receptor (CCKB). To test this hypothesis the effect of the specific CCKB antagonist (Itriglumide) on PG-mediated acid secretion in rats was examined.
In this study, rats were anesthetized with Ketamine and Domitor mixture and provided with 20 mg/kg of Itriglumide that was administered intraduodenally (i.d.). Following 15 min, gastric pylorus was ligated and 300 μg/kg PG was administered into the stomach (i.g.). After 30 min, gastric juice was obtained, centrifuged and the volume and pH of the supernatants were measured. The acid concentration (titratable acidity) was analyzed by titration the gastric juice samples with NaOH and total acid output expressed in […] HCl was calculated by multiplying the sample volume by the acid concentration.

gastric acid secretion = assay: Gastric pH and acid output after tetragastrin s.c. or per os in pylorus-ligated rats; type: in vivo, Wister rats; details: for acid secretion: 30 min, titration with NaOH to pH 7; for gastric pH: gastric juice collected 30 min after treatment
Experimental: The effect of tetragastrin (Trp-Met-Asp-PheNH2) administered orally in stimulating gastric acid secretion was examined. […] Tetragastrin was administered either s.c. (25 μg/kg) or per os (206 μg/kg) and gastric juice was collected 30 min following treatment. Acid concentration was measured by titration the samples with NaOH to pH=7. Results are expressed as means±SEM of 3-4 animals.

SMILES: CSCC[C@H](NC(=O)[C@H](Cc1c[nH]c2ccccc12)NC(=O)CCNC(=O)OC(C)(C)C)C(=O)N[C@@H](CC(=O)O)C(=O)N[C@@H](Cc1ccccc1)C(N)=O [^3H-PG]
- radioactivity in systemic circulation ([1]; 5 min): 748×10^3 CPM
- Radioactivity in systemic circulation % of Total Radioactivity/Dose ([1]; 5 min following oral administration): 1.43%
- radioactivity in systemic circulation ([1]; 15 min): 982×10^3 CPM
- Radioactivity in systemic circulation % of Total Radioactivity/Dose ([1]; 15 min following oral administration): 1.67%
- radioactivity in systemic circulation ([1]; 30 min): 832×10^3 CPM
- Radioactivity in systemic circulation % of Total Radioactivity/Dose ([1]; 30 min following oral administration): 1.42%
- share of total orally administered radioactivity that entered the systemic circulation ([1]; oral 50 μg/kg (50×10^6 CPM), over 5-30 min): approximately 1.5%

SMILES: Cc1cc(C)c(NC(=O)C[C@H](CC(=O)O)c2cccc3ccccc23)c(C(=O)N2CCC3(CCCC3)CC2)c1 [CCKB ant., Itriglumide]
- Acid Output MEAN (gastrin receptor (CCKB); CCKB ant. i.d. 20 mg/kg alone, pylorus-ligated rats): 15.24 pEq HCl
- effect of antagonist on PG-mediated gastric acid secretion (gastrin receptor (CCKB); intraduodenal 20 mg/kg, PG 300 μg/kg i.g., rats): inhibits the local effect of PG on gastric acid secretion

SMILES: CSCC[C@H](NC(=O)[C@@H](N)Cc1c[nH]c2ccccc12)C(=O)N[C@@H](CC(=O)O)C(=O)N[C@@H](Cc1ccccc1)C(N)=O [tetragastrin, Trp-Met-Asp-PheNH2]
- local stimulation of gastric acid secretion compared to PG (gastric acid secretion; equimolar dose, oral): less prominent as compared to PG
- acid secretion (gastric acid secretion; per os 206 μg/kg): elevated acid secretion
- gastric pH (gastric acid secretion; per os 206 μg/kg): reduced gastric pH
- acid secretion (gastric acid secretion; s.c. 25 μg/kg): elevated acid secretion
- gastric pH (gastric acid secretion; s.c. 25 μg/kg): reduced gastric pH
